Measured values reported in patent US20260193257A1, “BICYCLIC DERIVATIVES” (Elanco Tiergesundheit AG, priority 2018, published 2026).

Tests used:
[1] = test system: D. immitis microfilariae; test: Dog heart worm microfilariae motility assay; type: cell-based; conditions: Dirofilaria immitis, read-out: EC50 (motility inhibition)
[2] = test system: H. contortus (H.c.) larvae; test: Ruminant gastrointestinal (H. contortus) larval motility assay; conditions: Haemonchus contortus, read-out: EC50 (motility inhibition)
Experimental: H.c. eggs isolated from lamb fecal matter are allowed to hatch overnight. Test compounds are diluted in DMSO and added to a 96-well plate containing appropriate media. H.c. larvae are added to each well and plates are incubated for the desired time(s). Motility is assessed using an LCD camera imaging system. Percent motility inhibition values are generated relative to the average of the DMSO-only wells.

[3] = test system: T. colubriformis; test: Gastro intestinal nematodes, infected jird model (T. colubriformis); conditions: Jirds (Meriones unguiculatus), oral, Day 6 after infection, dose between 1×3 mg/kg and 1×32 mg/kg, worms recovered from small intestine three days after treatment
Experimental: Jirds (Meriones unguiculatus), are artificially infected by gavage with third instar larvae each of T. colubriformis and H. contortus. Then treated orally with the test compound formulated in eg DMSO/PEG 2/1, on Day 6 after infection at a dose in a range between 1×3 mg/kg up to 1×32 mg/kg. Three days after treatment, gerbils are euthanized and dissected to recover H. contortus from stomach and T. colubriformis from the small intestine. Efficacy is expressed as a % reduction in worm numbers in comparison with a placebo treated group, using the Abbot's formula.

[4] = test system: L. sigmodontis; test: L.s. model in mice; conditions: oral gavage, dose between 1×3 mg/kg and 5×32 mg/kg, necropsy 5 weeks after infection
Experimental: Model Mice, injected subcutaneously with infective L. sigmodontis larvae, were subsequently treated with the test article formulated in eg DMSO/PEG 2/1, by oral gavage at a dose in a range between 1×3 mg/kg up to 5×32 mg/kg (one dose per day for 5 consecutive days). At necropsy 5 weeks after infection, efficacy is calculated by counting developed larvae vs. untreated animals using Abbot's formula.

SMILES	EC50 [1]	EC50 [2]	Efficacy against Tc (% reduction in worm numbers vs placebo, Abbot's formula) [3]	Efficacy against Ls (developed larvae vs. untreated animals, Abbot's formula) [4]
CN(C)c1c(NC(=O)[C@@H]2CCOc3ccccc32)cnc2c(-c3cc(Cl)cc(Cl)c3)cccc12 [Example 1.1, (4R)—N-[8-(3,5-dichlorophenyl)-4-(dimethylamino)-3-quinolyl]chromane-4-carboxamide]	< 0.1 µg/mL	< 1 µg/mL	> 80%	–
CN(C)c1c(NC(=O)[C@@H]2CCCc3ccccc32)cnc2c(-c3cc(Cl)cc(Cl)c3)cccc12 [Example 1.3, (1R)-N-[8-(3,5-dichlorophenyl)-4-(dimethylamino)-3-quinolyl]tetralin-1-carboxamide]	< 0.1 µg/mL	–	–	–
CN(C)c1c(NC(=O)[C@H]2CCCc3ccccc32)cnc2c(-c3cc(Cl)cc(Cl)c3)cccc12 [Example 1.4, (1S)-N-[8-(3,5-dichlorophenyl)-4-(dimethylamino)-3-quinolyl]tetralin-1-carboxamide]	< 0.1 µg/mL	< 1 µg/mL	–	> 80%
O=C(Nc1cnc2c(-c3cc(Cl)cc(Cl)c3)cccc2c1C1CC1)[C@H]1CCOc2ccccc21 [Example 1.6, (4S)-N-[4-cyclopropyl-8-(3,5-dichlorophenyl)-3-quinolyl]chromane-4-carboxamide]	< 0.1 µg/mL	< 1 µg/mL	–	–
CON(C)c1c(NC(=O)[C@@H]2CCOc3ccccc32)cnc2c(-c3cc(Cl)cc(Cl)c3)cccc12 [Example 1.7, (4R)-N-[8-(3,5-dichlorophenyl)-4-[methoxy(methyl)amino]-3-quinolyl]chromane-4-carboxamide]	< 0.1 µg/mL	–	–	–
CN(C)c1c(NC(=O)[C@H]2CCOc3ccccc32)cnc2c(-c3cccc(Cl)c3Cl)cccc12 [Example 1.9, (4S)-N-[8-(2,3-dichlorophenyl)-4-(dimethylamino)-3-quinolyl]chromane-4-carboxamide]	< 0.1 µg/mL	< 1 µg/mL	–	–
CN(C)c1c(NC(=O)[C@H]2CCOc3ccccc32)cnc2c(-c3cc(Cl)cc(C(F)(F)F)c3)cccc12 [Example 1.11, (4S)-N-[8-[3-chloro-5-(trifluoromethyl)phenyl]-4-(dimethylamino)-3-quinolyl]chromane-4-carboxamide]	< 0.1 µg/mL	< 1 µg/mL	–	–
O=C(Nc1cnc2c(-c3cc(Cl)cc(Cl)c3)cccc2c1N1CCOCC1)[C@H]1CCOc2ccccc21 [Example 1.12, (4S)-N-[8-(3,5-dichlorophenyl)-4-morpholino-3-quinolyl]chromane-4-carboxamide]	< 0.1 µg/mL	< 1 µg/mL	–	–
CN(C)c1c(NC(=O)[C@@H]2CCOc3ccccc32)cnc2c(-c3cc(Cl)cc(Cl)c3)nccc12 [Example 4.2, (4R)-N-[8-(3,5-dichloro-dichlorophenyl)-4-(dimethylamino)-1,7-naphthyridin-3-yl]chromane-4-carboxamide]	–	< 1 µg/mL	–	–
CN(C)c1c(NC(=O)[C@@H]2CCOc3ccccc32)cnc2c(-c3cc(Cl)cc(Cl)c3)ccnc12 [Example 6.1, (4R)—N-[8-(3,5-dichlorophenyl)-4-(dimethylamino)-1,5-naphthyridin-3-yl]chromane-4-carboxamide]	–	< 1 µg/mL	–	–
CN(C)c1c(NC(=O)[C@H]2CCOc3ccccc32)cnc2c(-c3cc(Cl)cc(Cl)c3)ccnc12 [Example 6.2, (4S)-N-[8-(3,5-dichlorophenyl)-4-(dimethylamino)-1,5-naphthyridin-3-yl]chromane-4-carboxamide]	< 0.1 µg/mL	< 1 µg/mL	–	–
O=C(Nc1cnc2c(-c3cc(Cl)cc(Cl)c3)ccnc2c1N1CCOCC1)[C@H]1CCOc2ccccc21 [Example 6.3, (4S)-N-[8-(3,5-dichlorophenyl)-4-morpholino-1,5-naphthyridin-3-yl]chromane-4-carboxamide]	< 0.1 µg/mL	< 1 µg/mL	–	–
CN(C)c1c(NC(=O)N[C@H]2CCOc3ccccc32)cnc2c(-c3cc(Cl)cc(Cl)c3)cccc12 [Example 7.1, 1-[(4S)-Chroman-4-yl]-3-[8-(3,5-dichlorophenyl)-4-(dimethylamino)-3-quinolyl]urea]	–	< 1 µg/mL	–	–
